# Assay results as given in patent US20040224937A1, “Use of protein kinase C inhibitor for suppressing sustained slow postsynaptic excitation (SSPE)” (Pfizer Inc, priority 2003, published 2004).
# “Also recorded” adds a separate entry of the source.
# What was measured:
# [1] = system: myenteric intrinsic primary afferent neurons (IPANs; AH neurons); experiment: Sustained slow postsynaptic excitation (SSPE) evoked by 1 Hz, 4 min stimulation of synaptic inputs; intracellular recording in ileum myenteric plexus; assay type: cell-based, guinea pig; conditions: for effect on the excitability increase associated with SSPE: stimulation of presynaptic inputs 1 Hz for 4 min
# Description: (§1) Guinea pigs from the inbred Hartley strain colony of the Department of Anatomy and Cell Biology at the University of Melbourne were used. All efforts were made to minimize animal suffering and numbers of animals used. The experiments conformed to National Health and Medical Research Council of Australia guidelines and were approved by the University of Melbourne Animal Experimentation Ethics Committee. Guinea pigs of either sex (180-250 g) were stunned by a blow to the head and killed by severing the carotid arteries and spinal cord, and segments of ileum were removed into physiological saline. The segments were placed in a recording dish lined with silicone elastomer, opened along the line of the mesenteric attachment and pinned flat under moderate tension with the mucosa uppermost. During dissection, the tissue was immersed in physiological saline (composition in mM: NaCl 118, KCl 4.8, NaHCO3 25, NaH2PO4 1.0, MgSO4 1.2, glucose 11.1, CaCl2 2.5) and kept at room temperature. The mucosa, submucosa and circular smooth muscle were removed to expose the myenteric plexus. The recording dish (volume 4 mL) was then placed on the stage of an inverted microscope and continuously superfused (4 mL/min) with physiological saline that had been preheated to yield a bath temperature of 35-37° C. The superperfusion solution was bubbled with 95% O2 and 5% CO2 and contained nicardipine (3 μM) and hyoscine (1 μM) to inhibit muscle movement. The tissue was equilibrated with the perfusate for 1-2 h before recording was commenced.
# (§2) Individual neurons were impaled using conventional intracellular microelectrodes (resistance, […]) filled with 1 M KCl. Signals were amplified using an AxoClamp 2B amplifier (Axon instruments, Foster City, Calif., USA), digitized at 5-20 kHz and stored using PC-based data acquisition software (Axoscope 8.0). Measurements were made after allowing the impalements to stabilize for at least 15 min without applying intracellular holding current. Neurons were identified as AH cells based on the presence of a hump on the falling phase of the action potential and, in most cells, a late after-hyperpolarising potential following the action potential. Stimuli were applied to inter-ganglionic connectives at a frequency of 1 Hz, via a fine tungsten stimulating electrode (tip diameter<50 μm) that was placed on a circumferentially located internodal strand adjacent to the ganglion. Pulses were 0.1 ms in duration and <0.3 mA in intensity.
# (§3) Neuronal excitability was assessed, by injecting 500 ms depolarizing current pulses (0.05-0.2 nA). The depolarizing pulses were delivered at intervals of 40 s. The mean excitability was evaluated by averaging the numbers of action potentials evoked by the 6 depolarizing current pulses for periods of 4 min, prior to the 1 Hz stimulus, around the peak of the response, and for a period of 4 min after the end of the stimulus. To determine input resistance (Rin), small hyperpolarizing current pulses (duration 100 ms; intensity<0.02 nA) were injected before each depolarizing pulse. The membrane potential (MP) was sampled each 40 s. MP, Rin, and numbers of action potentials in response to depolarizing pulses were determined.
# [2] = system: myenteric intrinsic primary afferent neurons (IPANs; AH neurons); experiment: Direct effect of compounds on excitability, membrane potential, input resistance and action potentials of AH neurons (no or before presynaptic stimulation); assay type: cell-based, guinea pig
# Description: as §1, §2, §3
compound,measurement,setting,value
O=S(=O)(NCCNC/C=C/c1ccc(Br)cc1)c1cccc2cnccc12 [H89],effect on the excitability increase associated with SSPE,[1]; 1 μM,no effect; also recorded: not changed
same,"effect on excitability, membrane potential or input resistance before stimulation of presynaptic inputs","[2]; 1 μM, about 15-25 min exposure",no changes
"CCCC(=O)O[C@@H]1[C@@H](C)[C@@]2(O)[C@@H](C=C(CO)C[C@]3(O)C(=O)C(C)=C[C@@H]23)[C@@H]2C(C)(C)[C@]12OC(=O)CCC [PDBu, phorbol 12, 13 dibutyrate]",effect on excitability of the neuron,"[2]; 1 μM, example neuron, FIG. 5A",increased the excitability
same,depolarization,"[2]; 1 μM, example neuron, FIG. 5B",about 8 mV
same,increase of input resistance,"[2]; 1 μM, example neuron, FIG. 5C",about 100 MΩ
same,amplitude of the after-hyperpolarizing potential (AHP) during exposure,[2]; 0.2-1 μM in bath for 5-10 min,decreased
same,duration of effect beyond washing out of the compound,[2]; 0.2-1 μM in bath for 5-10 min,≥ 10 min
"[H]/N=C(/N)SCCCn1cc(C2=C(c3cn(C)c4ccccc34)C(=O)NC2=O)c2ccccc21 [RO31-8220, 3-[1-[3-(Amidinothio)propyl-1H-indol-3-yl]-3-(1-methyl-1H-indol-3-yl)maleimide Bisindolylmaleimide IX, methanesulfonate]",effect on the excitability increase associated with SSPE,[1]; 1 μM,not reduced
same,effect on the excitability increase associated with SSPE,"[1]; 3.3 μM, n=6, P<0.1",reduced the degree to which the excitability increased; also recorded: reduction in the increase of AH neuron excitability
same,effect on antidromic action potential generation,[2]; 3.3 μM,did not cause a depression
same,"effect on excitability, membrane potential or input resistance before stimulation of presynaptic inputs","[2]; 3.3 μM, 15 min exposure",without affecting
same,effect on antidromic action potentials,"[2]; 10 μM, restored by increasing stimulus strength",sometimes suppressed
CN[C@@H]1C[C@H]2O[C@@](C)([C@@H]1OC)n1c3ccccc3c3c4c(c5c6ccccc6n2c5c31)C(=O)NC4 [staurosporine],decrease of the peak change in excitability during SSPE,"[1]; 1 μM, stimulation 1 Hz for 4 min, n=6, P<0.01 vs control",about 75%
same,effect on the excitability increase associated with SSPE,[1]; 1 μM,significantly smaller or no increase in neuronal excitability
same,"effect on excitability, membrane potential or input resistance before stimulation of presynaptic inputs","[2]; 1 μM, about 15-25 min exposure",did not cause any change
calphostin C,reversal of excitability already enhanced by successive stimuli (maintenance of SSPE),"[1]; 1 μM, added after SSPE had been enhanced",did not restore excitability to its pre-stimulus level
same,effect on the excitability increase associated with SSPE,[1]; 1 μM,blocked
same,effect on the excitability increase associated with SSPE,"[1]; 1 μM, listed as Calphostin C",substantially reduced
same,"effect on excitability, membrane potential or input resistance before stimulation of presynaptic inputs","[2]; 1 μM, about 15-25 min exposure",did not affect
